The values below come from PubChem BioAssay (NCI).

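Values below derive from 48-hour exposures of cells grown in 96-well plates, with endpoints linearly interpolated between the two concentrations bracketing the appropriate inhibition level. GI50: concentration for 50% inhibition of growth. TGI is the concentration that stops growth completely.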 A value given as a limit tells only on which side of the number the result lay.

What all share (experiment): NCI tumour cell line growth inhibition, 48 h
Assay [1] relates to A549 NSCLC.
In assay [2] the test system is COLO 205 colon.
Assay [3] deals with HL-60(TB) leukemia.
In assay [4] the test system is HOP-92 NSCLC.
Assay [5] relates to LOX IMVI melanoma.
For assay [6], the system named is NCI-H226 lung.
Assay [7] has as its system NCI-H23 lung.
Assay [8] deals with NCI-H460 lung.
For assay [9], the system named is RPMI-8226 leukemia.
The test system of assay [10] is SN12C renal.

Take `COC(=O)C(/C(=N\NC(N)=S)C(=O)Nc1ccccc1[N+](=O)[O-])c1cnc2ccccc2n1` (stereo not given): the TGI in assay [1], in assay [2], in [3], in [4], in [5] and in assay [6] was > 100 µM throughout. Moreover, the TGI in assay [7], in assay [8], in [9] and in [10] was > 100 µM in each case.

Take `COc1ccc2c(c1OC(C)=O)C1=CC(=O)CCC13CCNC3C2` (stereo not given): the TGI in assay [1], in assay [2], in assay [3], in assay [4], in assay [5] and in assay [6] was > 100 µM each time. Also, the TGI in [7], in [8], in [9] and in assay [10] was > 100 µM each time.

On to `C=CCN(N=O)C(=O)NCCCCC(NC(C)=O)C(=O)NCc1ccccc1` (stereo not given), for which the TGI in assay [1], in assay [2], in assay [3], in assay [4], in assay [5] and in assay [6] was > 100 µM throughout. The TGI in assay [7], in [8], in assay [9] and in assay [10] was > 100 µM in each case.

As for `COc1cc2c(cc1C)NC(=O)/C2=C\c1c[nH]c2ccccc12`, the GI50 is 28.4 µM in assay [1]; 16.6 µM in assay [2]; 15.9 µM in [3]; 10.2 µM in assay [4]; 11.4 µM in assay [5]; 15.1 µM in [6]. Moreover, the GI50 was 20.2 µM in assay [7], 4.93 µM in [8], 5.95 µM in assay [9] and 11.6 µM in assay [10]. The TGI in [1] is > 100 µM; in [2], > 100 µM; in assay [3], 45.5 µM; in assay [4], 29.9 µM; in assay [5] it was 29.3 µM; in [6] it was 41.6 µM. In addition, the TGI in assay [7] worked out at 74.6 µM; in [8] it was 41.9 µM; in assay [9] it was 63 µM; in [10] it was 27.7 µM.
